According to ChEMBL document CHEMBL1159214, “The antiallergic activities of synthetic acrophylline and acrophyllidine” (J Nat Prod, 1995):
The source made the active and inactive calls. The rule behind the calls is not given here.

Columns and labels:
[1] = test system: Mast cell; assay: Inhibition of compound 48/80-challenged Sprague-Dawley rat peritoneal mast cell degranulation assessed as beta-glucuronidase release at 30 uM administered 3 mins prior to compound 48/80 challenge measured after 15 mins; format: functional, cell-based
[2] = test system: Mast cell; assay: Inhibition of compound 48/80-challenged Sprague-Dawley rat peritoneal mast cell degranulation assessed as beta-glucuronidase release at 10 uM administered 3 mins prior to compound 48/80 challenge measured after 15 mins; format: functional, cell-based
[3] = test system: Mus musculus; assay: Suppression of anti-dinitrophenyl-coupled albumin-induced passive cutaneous anaphylaxis reaction-associated ear edema in mouse assessed as reduction of volume of plasma exudation at 30 umol/kg, ip administered 30 mins prior to DNP-albumin challenge measured after 45 mins; format: functional, organism-based
[4] = test system: Mast cell; assay: Inhibition of compound 48/80-challenged Sprague-Dawley rat peritoneal mast cell degranulation assessed as beta-glucuronidase release up to 100 uM administered 3 mins prior to compound 48/80 challenge measured after 15 mins; format: functional, cell-based

Row | SMILES | Activity [1] | Activity [2] | Activity [3] | Activity [4]
1 | COc1ccc2c(=O)c3ccoc3n(CC=C(C)C)c2c1 | Active | Active | Active | –
2 | COc1ccc2c(=O)c3ccoc3n(CCC(C)(C)O)c2c1 | – | – | Active | inactive
